Results on 8 compounds are retold here after patent US4672117A, “Antipsychotic gamma-carbolines” (American Home Products Corporation, priority 1985, dated 1987).

For series [1], the system named is male CD rats. Briefly: conditioned avoidance, lever-response (L-R). Format: in vivo. The following applies: rat; for L-R relative activity: lever-response conditioned avoidance; for ED50: po, lever-response, p.o., interval in brackets, read-out: L-R AB50 (50% block in avoidance responding). An excerpt: (§1) The antipsychotic properties of the compounds of this invention were established by standard pharmacologically accepted procedures involving two conditioned avoidance studies in which trained male CD rats (Charles River), 400-450 gm body weight are exposed to a fifteen second warning tone (conditioned stimulus) continued for an additional fifteen seconds accompanied by electric shock. The rat can avoid the electric shock by depression of a response lever (lever-response) or in a different study by jumping to an exposed shelf (shelf-jump response). In either test situation, a response during the initial warning tone is considered an avoidance response while a response during shock delivery is considered an escape response. The avoidance response is determined and expressed as a percentage of total trials from an appropriate number of trials and a 50% block in avoidance responding (AB50) is obtained from a dose-effect regression line. All the data is based upon (mg/kg) dosing of the animals. The shelf-jump response test procedure follows that of Herman et al., Comm. in Psychopharm., 3, pp. 165-171 (1979).
(§2) The following examples illustrate the production of compounds of this invention. After each example the pharmacological evaluation for the compound produced is presented. The conditioned avoidance tests are reported as relative activity for the shelf-jump (S-J) at the intraperitoneal (i.p.) dose administered in mg/kg and the AB50 is presented for the lever-response (L-R) test at the oral (p.o.) dose in mg/kg. The inhibition constant is reported for limbic D-2 binding expressed in nM concentration.

The test system of series [2] is male CD rats. The series can be described thus: conditioned avoidance, shelf-jump response (S-J). In kind it is in vivo. The following applies: rat.
Description: as §1, §2

Series [3] addresses T1, limbic D-2 dopamine receptor (Rattus norvegicus, UniProt P61169).
T1 construct: from tissue
The series can be described thus: limbic D-2 binding, 3H-spiroperidol, homogenized limbic brain tissue. The following applies: 95% confidence interval in brackets, read-out: Limbic D-2 inhibition constant (Ki). The procedure: Binding in the presence of the test compound is expressed as a percent of specific binding (total binding less binding in the presence of 1 μM (+)butaclamol). An inhibition constant (Ki) is calculated for each test compound to categorize its limbic D-2 binding potential. The larger the number, the less potential for dopamine receptor binding and attendant side effects from administration of the antipsychotic agent.
as §2

Series [4] in a line: antagonism of apomorphine-induced stereotyped behavior. The following applies: mouse, in vivo, ip, CF-1 mice, 10 mg/kg apomorphine s.c. 30 min later; measure of extrapyramidal side effects; read-out: ED50 for inhibition of apomorphine-induced stereotyped behavior.

T1 sequence (P61169 whole entry): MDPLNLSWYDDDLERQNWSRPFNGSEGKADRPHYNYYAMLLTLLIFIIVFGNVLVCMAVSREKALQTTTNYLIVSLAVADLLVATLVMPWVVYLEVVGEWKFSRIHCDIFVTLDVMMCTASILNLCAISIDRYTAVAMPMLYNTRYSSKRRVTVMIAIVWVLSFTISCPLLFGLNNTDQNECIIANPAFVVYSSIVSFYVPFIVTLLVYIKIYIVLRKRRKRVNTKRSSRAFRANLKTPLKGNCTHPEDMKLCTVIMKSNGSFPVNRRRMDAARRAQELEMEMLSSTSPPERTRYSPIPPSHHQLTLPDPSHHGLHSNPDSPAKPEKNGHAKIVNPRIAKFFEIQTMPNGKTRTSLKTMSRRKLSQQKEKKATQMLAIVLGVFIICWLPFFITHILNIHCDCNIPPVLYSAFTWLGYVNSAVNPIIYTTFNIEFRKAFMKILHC

Take `Fc1ccc(-n2c3c(c4cc(F)ccc42)CN(CCc2cnccn2)CC3)cc1` [Example 8, 8-Fluoro-5-(4-fluorophenyl)-2,3,4,5-tetrahydro-2-[2-(2-pyrazinyl)ethyl]-1H-pyrido[4,3-b]indole]: the L-R relative activity entry in the series with male CD rats [1] (20 mg/kg p.o.) is recorded as “Active”. The ED50 with male CD rats [1] worked out at 15.2 mg/kg. The S-J relative activity entry in the series with male CD rats [2] (40 mg/kg i.p.) is “Very Active”.
As to `c1ccc(C2CN(CCCc3cccnc3)Cc3c2[nH]c2ccccc32)cc1` (stereo not drawn) [Example 3, 2,3,4,5-Tetrahydro-4-phenyl-2-[3-(3-pyridinyl)propyl]-1H-pyrido[4,3-b]indole], the Ki in series [3] is 0.14 µM.
As to `Fc1ccc(-n2c3c(c4cc(F)ccc42)CN(CCc2ccc4ccccc4n2)CC3)cc1` [Example 5, 8-Fluoro-5-(4-fluorophenyl)-2,3,4,5-tetrahydro-2-[2-(2-quinolinyl)ethyl]-1H-pyrido[4,3-b]indole], in series [3], the Ki was determined as 0.00107 µM. The ED50 in series [4] stood at 1.62 mg/kg. In the series on male CD rats [1] (40 mg/kg p.o.), the L-R relative activity result is “Active”. The S-J relative activity result with male CD rats [2] (40 mg/kg i.p.) is recorded as “Active”.
Take `c1ccc(C2CN(CCc3ccccn3)Cc3c2[nH]c2ccccc32)cc1` (stereo not drawn) [Example 4, 2,3,4,5-Tetrahydro-4-phenyl-2-[2-(2-pyridinyl)ethyl]-1H-pyrido[4,3-b]indole]: the Ki in series [3] came out at 0.6 µM.
As for `c1ccc(C2CN(CCCCc3ccncc3)Cc3c2[nH]c2ccccc32)cc1` (stereo not drawn) [Example 2, 2,3,4,5-Tetrahydro-4-phenyl-2-[4-(4-pyridinyl)butyl]-1H-pyrido[4,3-b]indole], the Ki in series [3] came out at 0.404 µM. Moreover, in the series on male CD rats [2] (20 mg/kg i.p.), the S-J relative activity result is “Very weak”.
Regarding `Fc1ccc(-n2c3c(c4cc(F)ccc42)CN(CCc2ccncc2)CC3)cc1` [Example 7, 8-Fluoro-5-(4-fluorophenyl)-2,3,4,5-tetrahydro-2-[2-(4-pyridinyl)ethyl]-1H-pyrido[4,3-b]indole], in series [3], the Ki was determined as 0.012 µM. Besides, the S-J relative activity entry in the series on male CD rats [2] (40 mg/kg i.p.) was “Active”.
As for `Fc1ccc(-n2c3c(c4cc(F)ccc42)CN(CCCCc2ccccn2)CC3)cc1` [Example 6, 8-Fluoro-5-(4-fluorophenyl)-2,3,4,5-tetrahydro-2-[4-(2-pyridinyl)butyl]-2H-pyrido[4,3-b]indole], the S-J relative activity entry in the series with male CD rats [2] (40 mg/kg i.p.) was “Active”.
Turning to `Fc1ccc(-n2c3c(c4cc(F)ccc42)CN(CCc2ccccn2)CC3)cc1` [Example 1, 8-Fluoro-5-(4-fluorophenyl)-2,3,4,5-tetrahydro-2-[2-(2-pyridinyl)ethyl]-1H-pyrido[4,3-b]indole], the Ki in series [3] was 0.007 µM. For the same compound, the L-R relative activity entry with male CD rats [1] (20 mg/kg p.o.) was “Active”. For the same compound, in the series with male CD rats [1], the ED50 was found to be 6.3 mg/kg. The S-J relative activity result with male CD rats [2] (20 mg/kg i.p.) is recorded as “Active”.
